Results from US20250041275A1, “COMPOSITION FOR USE IN THE TREATMENT OF A DISEASE” (RAMBAM MED-TECH LTD., priority 2022, published 2025).

Assays:
[1] = acute toxicity, intraperitoneal injection in wild type mice; settings: mouse, in vivo, ip; intraperitoneal injection, sterile water as carrier, groups of 5 wild type mice
Method: (§1) Further, the inventors examined the acute toxicity of the compounds Indose and Diclose. A series of dosages: 8 mg/kg, 32 mg/kg, 64 mg/kg, 128 mg/kg, 256 mg/kg, 512 mg/kg, 768 mg/kg, 1024 mg/kg, 1,100 mg/kg, and 1,200 mg/kg were injected by intraperitoneal injection in the presence of sterile water as carrier. Each dosage was injected to a group of 5 wild type mice.

[2] = tested on: wild type mice; test: as above; settings: mouse, in vivo, ip; for mortality: 500 mg/kg
Method: as §1

[3] = tested on: cerulein-induced acute pancreatitis; test: cerulein-induced acute pancreatitis (AP) in WT and Hpa-Tg mice; type: in vivo; settings: for tolerability: 16 and 32 mg/kg doses; for severity of AP: 16 and 32 mg/kg doses i.p., pre-treatment, FIGS. 5 and 6; for pancreato-protective effects against AP: early (pre) or post treatment, 10 mg/mouse, FIGS. 3-4
Method: (§2) Studies utilized wild type (WT) BALB/c mice and heparanase transgenic (Hpa-Tg) mice in which the human heparanase gene is driven by a constitutive β-actin promoter (19) in a BALB/c genetic background. Animals were fed standard mouse chow and tap water ad libitum. All experiments were approved and performed according to the Technion's guidelines of the Committee for the Supervision of Animal Experiments.
Mice were injected with either cerulein (intraperitoneally, […], 5 times at 1 hour apart) (Sigma-Aldrich), or saline (0.9% NaCl) (control group). Additional groups of mice were pretreated with either Aspirin (250 mg/kg, SC) and Trehalose (2000 mg/kg, ip) alone or combined. Additional groups of animals were pre- and post-treated with Aspirlose (10 mg/mouse). […] Finally, the inventors tested the effectivity of “Indose” and “Diclose” at various concentrations against AP. Mice were sacrificed 24 hours later, and serum samples and pancreatic tissue were collected for measurements of blood amylase and lipase levels, pancreatic index (pancreas/body weight ratio), and for histological analysis. Portion of pancreas tissues were also homogenized, and lysate samples were subjected to immunoblotting.
Pancreatic tissue samples were fixed in 10% neutral-buffered formalin progressively dehydrated in graduated alcohol and embedded in paraffin. Five-micron (5 μm) sections were stained with hematoxylin and eosin (H&E).

[4] = tested on: ischemia-reperfusion acute kidney injury; test: ischemia-reperfusion (I/R) acute kidney injury (AKI) model in WT FVB/N mice; type: in vivo; settings: administered short time after induction of AKI, FIGS. 13A-13C
Method: (§3) Renal ischemia was induced by clamping the renal artery of both kidneys for 30 min followed by reperfusion (I/R). The inventors tested the effectivity of “Indose” and “Diclose” before induction of ischemia (e.g., “prophylactic effect” or “pre-treatment”) or after (e.g., “treating effect” or “post-treatment”), using the dosing as disclosed hereinabove. Mice were sacrificed 48 hours later, and serum samples and kidney tissue were collected for measurements of blood creatinine and urea nitrogen levels, kidney index (kidney/body weight ratio), and for histological analysis. Portion of kidney tissues were also homogenized, and lysate samples were subjected to mRNA extraction, and expression analysis of neutrophil gelatinase-associated lipocalin (NGAL) and kidney injury molecule-1 (KIM-1).
The inventors used the ischemia-reperfusion (I/R)-AKI model in mice. The pathogenesis of this disease was evaluated based on kidney edema, blood creatinine (Scr), and blood urea nitrogen (BUN) levels were determined 48 hours following AKI induction. Further, the inventors performed histopathological analysis, as well as expression analysis of the renal injury biomarkers neutrophil gelatinase-associated lipocalin (NGAL), kidney injury molecule-1 (KIM-1). […]

[5] = tested on: ischemia-reperfusion acute kidney injury; test: ischemia-reperfusion (I/R) acute kidney injury (AKI) model in Hpa-Tg mice; type: in vivo; settings: pretreatment; for expression level of NGAL in kidney / expression level of KIM-1 in kidney: female Hpa-Tg mice; for expression level of NGAL in kidney / NGAL expression in kidney: FIG. 11A; for expression level of KIM-1 in kidney: FIG. 11B; for NGAL expression in kidney: male Hpa-Tg mice; for kidney weight normalized to body weight (KW/BW): Hpa-Tg mice, 48 h after AKI, FIGS. 7A and 8A; for gross morphology and histopathology of kidneys: Indose 16 mg/kg i.p., Diclose 32 mg/kg i.p., male and female Hpa-Tg mice, FIGS. 9 and 10; for increase of blood urea nitrogen (BUN) following AKI / increase of serum creatinine (SCr) following AKI: male Hpa-Tg mice (trend persisted in females), 48 h from AKI induction
Method: as §2, §3
The inventors used the ischemia-reperfusion (I/R)-AKI model in mice. The pathogenesis of this disease was evaluated based on kidney edema, blood creatinine (Scr), and blood urea nitrogen (BUN) levels were determined 48 hours following AKI induction. Further, the inventors performed histopathological analysis, as well as expression analysis of the renal injury biomarkers neutrophil gelatinase-associated lipocalin (NGAL), kidney injury molecule-1 (KIM-1).
AKI was induced in the absence or presence of pretreatment with Indose (16 mg/kg, i.p.) or Diclose (32 mg/kg, i.p.), respectively in Hpa-Tg mice (males and females). Untreated Hpa-Tg male and female mice that underwent sham operation served as control group. […] In male mice pretreated with Diclose and Indose, a reduction in NGAL expression was also observed (FIG. 11A). This trend persisted in female mice although the elevation in SCr and BUN following AKI was to a lesser extent.

[6] = tested on: cerulein-induced acute pancreatitis; settings: previous studies; cited from earlier work
[7] = WT and Hpa-Tg mice, cerulein treatment, FIG. 1

Row | SMILES | LD50 [1] | toxicity (overall) [2] | mortality [2] | tolerability ([3]; WT and Hpa-Tg mice) | severity of AP ([3]; WT and Hpa-Tg mice) | effects on AKI, post-treatment [4] | expression level of NGAL in kidney [5] | expression level of KIM-1 in kidney [5] | NGAL expression in kidney [5] | kidney weight normalized to body weight (KW/BW) [5] | gross morphology and histopathology of kidneys [5] | increase of blood urea nitrogen (BUN) following AKI [5] | increase of serum creatinine (SCr) following AKI [5] | pancreato-protective effects against AP [3] | pancreas edema and inflammation, induction of cytokines and signaling molecules following cerulein administration [6] | tissue edema (histopathology of pancreas) ([3]; WT and Hpa-Tg mice exposed to cerulein, FIG. 2) | elevation in biochemical parameters (serum amylase and lipase) [3, 7] | pancreatic edema (pancreatic index, % Pancreatic weight/Body weight) [3, 7]
1 | O=C(Cc1ccccc1Nc1c(Cl)cccc1Cl)OC[C@H]1O[C@H](O[C@H]2O[C@H](CO)[C@@H](O)[C@H](O)[C@H]2O)[C@H](O)[C@@H](O)[C@@H]1O [Diclose, Trehalose-Dichlorofenac] | 780 mg/kg | low toxicity | No mortality was observed | well tolerated | reduced the severity of AP | curative effects of AKI, with the effects of Diclose being more pronounced | effectively reduced | effectively reduced | reduction | significantly reduced | resembled kidneys of the ‘Sham’ control group | remarkably attenuated | remarkably attenuated | – | – | – | – | –
2 | CC(=O)Oc1ccccc1C(=O)OC[C@H]1O[C@H](O[C@H]2OC(CO)[C@@H](O)[C@H](O)[C@H]2O)[C@H](O)[C@@H](O)[C@@H]1O (some centres unmarked) [Asprilose mono] | – | – | – | – | – | – | – | – | – | – | – | – | – | pancreato-protective effects | – | – | – | –
3 | CC(C)CCC[C@@H](C)[C@H]1CC[C@H]2[C@@H]3CC[C@H]4C[C@@H](O[C@@H]5O[C@H](COS(=O)(=O)O)[C@@H](O[C@H]6O[C@H](COS(=O)(=O)O)[C@@H](O[C@H]7O[C@H](COS(=O)(=O)O)[C@@H](O[C@H]8O[C@H](COS(=O)(=O)O)[C@@H](OS(=O)(=O)O)[C@H](OS(=O)(=O)O)[C@H]8OS(=O)(=O)O)[C@H](OS(=O)(=O)O)[C@H]7OS(=O)(=O)O)[C@H](OS(=O)(=O)O)[C@H]6OS(=O)(=O)O)[C@H](OS(=O)(=O)O)[C@H]5OS(=O)(=O)O)CC[C@]4(C)[C@H]3CC[C@]12C [PG545, reference compound] | – | – | – | – | – | – | – | – | – | – | – | – | – | – | attenuated markedly | markedly restored | markedly reduced | markedly reduced
4 | Cc1c(CC(=O)OC[C@H]2O[C@H](O[C@H]3O[C@H](CO)[C@@H](O)[C@H](O)[C@H]3O)[C@H](O)[C@@H](O)[C@@H]2O)c2ccccc2n1C(=O)c1ccc(Cl)cc1 [Indose, Trehalose-Indomethacin] | 900 mg/kg | low toxicity | No mortality was observed | well tolerated | reduced the severity of AP | curative effects | effectively reduced | effectively reduced | reduction | significantly reduced | resembled kidneys of the ‘Sham’ control group | remarkably attenuated | remarkably attenuated | – | – | – | – | –
5 | CC(=O)Oc1ccccc1C(=O)OCC1O[C@H](O[C@H]2O[C@H](COC(=O)c3ccccc3OC(C)=O)[C@@H](O)[C@H](O)[C@H]2O)[C@H](O)[C@@H](O)[C@@H]1O (some centres unmarked) [Asprilose dimer] | – | – | – | – | – | – | – | – | – | – | – | – | – | pancreato-protective effects | – | – | – | –
